Assay results reported in the supplement of paper PMC10307832.

Experiments:
Assay in all cases: relative viability (nuclei count vs DMSO), 5 days (fraction); higher = more cells survive
Sunitinib + Phenformin = compound: CCN(CC)CCNC(=O)c1c(C)[nH]c(/C=C2\C(=O)Nc3ccc(F)cc32)c1C [Sunitinib] + N=C(N)NC(=N)NCCc1ccccc1 [Phenformin] (partner 250 µM)
How it was run: (§1)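 One day after seeding in 1536-well plates, lung cancer cell lines were dosed by pin tool. Dosing was either single-drug or a fixed anchor-drug dose plus five library-drug doses (not always all listed) in √10 steps. After 5 days, nuclei were stained in one fix-and-stain step and counted on 4× images, and relative viability is the nuclei count of treated wells over that of vehicle wells, given as the median of duplicate plates.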

Sunitinib + Pictilisib = compound: CCN(CC)CCNC(=O)c1c(C)[nH]c(/C=C2\C(=O)Nc3ccc(F)cc32)c1C [Sunitinib] + CS(=O)(=O)N1CCN(Cc2cc3nc(-c4cccc5[nH]ncc45)nc(N4CCOCC4)c3s2)CC1 [Pictilisib] (partner 1 µM)
How it was run: as §1

Sunitinib + Alpelisib = compound: CCN(CC)CCNC(=O)c1c(C)[nH]c(/C=C2\C(=O)Nc3ccc(F)cc32)c1C [Sunitinib] + Cc1nc(NC(=O)N2CCC[C@H]2C(N)=O)sc1-c1ccnc(C(C)(C)C(F)(F)F)c1 [Alpelisib] (partner 2 µM)
How it was run: as §1

Sunitinib + AZD7762 = compound: CCN(CC)CCNC(=O)c1c(C)[nH]c(/C=C2\C(=O)Nc3ccc(F)cc32)c1C [Sunitinib] + NC(=O)Nc1cc(-c2cccc(F)c2)sc1C(=O)N[C@H]1CCCNC1 [AZD7762] (partner 0.2 µM)
How it was run: as §1

Cell Line	relative viability (Sunitinib + Phenformin; first compound 0.02 µM)	relative viability (Sunitinib + Phenformin; first compound 0.06325 µM)	relative viability (Sunitinib + Phenformin; first compound 0.2 µM)	relative viability (Sunitinib + Phenformin; first compound 0.6325 µM)	relative viability (Sunitinib + Phenformin; first compound 2 µM)	relative viability (Sunitinib + Pictilisib; first compound 0.02 µM)	relative viability (Sunitinib + Pictilisib; first compound 0.06325 µM)	relative viability (Sunitinib + Pictilisib; first compound 0.2 µM)	relative viability (Sunitinib + Pictilisib; first compound 0.6325 µM)	relative viability (Sunitinib + Pictilisib; first compound 2 µM)	relative viability (Sunitinib + Alpelisib; first compound 0.02 µM)	relative viability (Sunitinib + Alpelisib; first compound 0.06325 µM)	relative viability (Sunitinib + Alpelisib; first compound 0.2 µM)	relative viability (Sunitinib + Alpelisib; first compound 0.6325 µM)	relative viability (Sunitinib + Alpelisib; first compound 2 µM)	relative viability (Sunitinib + AZD7762; first compound 0.02 µM)	relative viability (Sunitinib + AZD7762; first compound 0.06325 µM)	relative viability (Sunitinib + AZD7762; first compound 0.2 µM)	relative viability (Sunitinib + AZD7762; first compound 0.6325 µM)	relative viability (Sunitinib + AZD7762; first compound 2 µM)
NCI-H1666	0.569	0.587	0.55	0.586	0.538	0.459	0.517	0.603	0.55	0.429	0.865	0.938	1.03	1.02	0.971	0.782	1.02	0.907	0.895	0.886
NCI-H1734	0.345	0.46	0.474	0.392	0.358	0.433	0.518	0.522	0.452	0.423	0.626	0.673	0.869	0.669	0.641	0.436	0.592	0.635	0.543	0.518
NCI-H1755	0.574	0.672	0.675	0.692	0.642	0.371	0.481	0.472	0.454	0.451	0.938	0.915	1.01	0.94		0.414	0.478	0.53	0.408	0.421
NCI-H1792		0.381	0.351	0.418	0.31	0.242	0.291	0.243	0.242	0.265	0.578	0.56	0.78	0.682	0.824	0.503	0.847	1.02	0.835	0.512
NCI-H1793	0.349	0.319	0.483	0.326	0.333		0.296	0.361	0.241	0.297		0.727	0.823	0.696	0.787		0.448	0.44	0.377	0.334
NCI-H1915	0.348	0.396	0.43	0.367	0.368	0.958	1.01	1.02	0.977	1.02		1.09	1.13	1.06	1.11	0.678	0.741	0.601	0.749	0.75
NCI-H1944	0.183	0.206	0.214	0.203	0.199	0.315	0.379	0.412	0.337	0.374	0.798	0.883	1.02	0.964		0.435	0.481	0.656	0.63	0.506
NCI-H1975	0.399	0.442	0.425	0.427	0.393	0.285	0.345	0.319	0.33	0.237	0.597	0.686	0.669	0.677	0.381	0.748	0.679	0.723	0.705	0.579
